Earlier results on one compound are cited in patent US20220313684A1, “PHARMACEUTICAL COMPOSITION COMPRISING IRINOTECAN FREE BASE FOR ORAL ADMINISTRATION” (DAE HWA PHARMA. CO., LTD., priority 2019, published 2022).

For the data set the following is noted: oral administration of irinotecan; reported (EP 2328557).

`CCc1c2c(nc3ccc(OC(=O)N4CCC(N5CCCCC5)CC4)cc13)-c1cc3c(c(=O)n1C2)COC(=O)[C@]3(O)CC` [irinotecan, (S)-4,11-diethyl-3,4,12,14-tetrahydro-4-hydroxy-3,14-dioxo-1H-pyrano[3′,4′:6,7]-indolizino[1,2-b]quinolin-9-yl [1,4′bipiperidine]-1′-carboxylate]: the “bioavailability upon oral administration” value is reported as 9%.
